Patent US5373040A, “Amorphous solid modification of 2,2',2"-nitrilo[triethyl-tris-(3,3',5,5'-tetra-tert-butyl-1,1'-biphenyl- 2,2'-diyl)phosphite]” (Ciba-Geigy Corporation, priority 1993, dated 1994)

Columns and labels:
[1] = Stabilization of unsaturated elastomer: time until onset of crosslinking; conditions: 0.5% by weight, 150° C., 60 rpm; versus unstabilized SBR
Description: The instant compound of Example 1 is evaluated in an emulsion of SBR (cold polymerized, 23.5% styrene with a 52 Mooney Viscosity). The unstabilized SBR (60 g) is added to the mixing chamber of a Brabender Plasticorder set at 150° C. and 60 rpm. After 30 seconds, 0.5% by weight of the compound of instant Example 1 is added to the chamber. Stability of the SBR is determined by the time until onset of crosslinking of the rubber as indicated by an increase in the torque curve.

[2] = Stabilization of poly(ethylene terephthalate): intrinsic viscosity; conditions: 0.5% by weight, five extrusion passes; versus PET containing no stabilizer
Description: Poly(ethylene terephthalate), PET (KODAPAR® 7352, Eastman Chemical) is tumble blended with 0.5% by weight of the compound of instant Example 1. The polymer is then extruded and pelletized at 500° F. (260°C.) in a MPM 1" (2.54 cm) single screw extruder. The pellets are collected, redried and reextruded 5 times. Pellets are collected from each extrusion pass and the polymer intrinsic viscosity measured.

[3] = Solubility in LLDPE film by diffusion-in, X-ray fluorescence; assay type: physicochemical
Description: Experiments are carried out to determine the solubility of the instant compound into linear low density polyethylene (LLDPE) films at 20° C., 40° C. and 60° C. by diffusion-in of a relatively homogeneous particle size (<70 microns) of the test sample suspended in silicon oil.
Each sample is carefully ground with a mortar and pestle and the particle size below 70 microns is separated by sieving with a 200 mesh screen. The powder is then suspended in silicon oil (polydimethylsiloxane, L-45, Union Carbide Chemicals) at a concentration of approximately 38% (wt/wt). A few drops of this suspension is placed on a 10 mil (0.254 mm) thick, 2"×2" (5.08 cm×5.08 cm) compression molded film and a second film of the same dimension is placed on top. The films are gently pressed together so that the suspension forms a thin liquid layer between the polymer films. Excess suspension is removed and the procedure is repeated till a stack of eight films (six films for evaluation) are prepared. The stack is then placed between two 2.5"×2.5" (6.35 cm×6.35 cm) ceramic tiles and wrapped in aluminum foil and held together with a G-clamp. Each stack is aged at 20° C., 40° C. and 60° C. under a nitrogen atmosphere. At specified intervals, a single film is removed from the stack and the excess suspension is washed from the film with hexane. The film is then analyzed by X-ray fluorescence for total phosphorus content. LLDPE containing 0, 1000 ppm and 2000 ppm of the test compound are used as standard controls for this X-ray fluorescence method.

[4] = Process stabilization of polypropylene at 525° F.: melt flow rate (ASTM D1238); conditions: in the presence of a representative phenolic antioxidant; versus prior art compound of U.S. Pat. No. 4,318,845
Description: The test additives are incorporated into the polypropylene by dry blending or, when the additive is a liquid, using a minimum amount of methylene chloride solvent. The solvent is then removed by evaporation under reduced pressure.
After each of the first, third and fifth extrusions, the melt flow rate (in grams/10 minutes) is determined by ASTM method D1238 on the pellets obtained from the extruder.

[5] = Stabilization of poly(butylene terephthalate): intrinsic viscosity; conditions: 0.3% by weight; second pass extrudate and injection molded plaques; versus PBT containing no stabilizer
Description: Poly(butylene terephthalate), PBT (RYNITE® 9160, DuPont) is tumble blended with 0.3% by weight of the compound of instant Example 1. The polymer is then extruded and pelletized at 260° C. A portion of the collected pellets are reextruded under the same conditions for a second pass. The remainder from the first extrusion is injection molded into 2"×2"×125 mil (5.08 cm×5.08 cm×3.175 mm) plaques at 540° F. (282° C.) with a 100° C. mold temperature in a BOY 30M molder. Intrinsic viscosities of the second pass extrudate and the injection molded plaques are determined.

[6] = Stabilization of polyol: discoloration or scorch of foam; conditions: 1000 ppm plus BHT 2000 ppm and NAUGARD 445 2000 ppm; versus control stabilizer package
Description: A premix of 10 g of water, 0.25 g of triethylenetetramine, 2 g of L-5740 (silicone surfactant, Union Carbide) and 20 g of ANTIBLAZE® AB-100 (chlorinated aromatic flame retardant, Albright & Wilson) is added to 200 g of 3000 molecular weight polyether polyol containing the stabilizer package listed below*. The mixture is stirred for five minutes with a high speed Lightning Mixer. Then 0.4 g of stannous octoate is added and the mixture is stirred for 5 seconds. Finally, 125 g of toluene diisocyanate ([…]) is added. The mixture is stirred for 7 seconds at high speed mixing and is then poured into a 10"×10"×5" (25.4 cm×25.4 cm×12.7 cm) cardboard box. The foam is allowed to rise completely. After standing 5 minutes, the box is removed and the sample cured in a microwave over for five minutes at 50% power. The foam is then immediately air over cured at 125° C. for three minutes. The foams are then cut in half for visual assessment of discoloration or scorch.
Control is 2,6-di-tert-butyl-4-methylphenol (BHT) 2000 ppm; and NAUGARD® 445 (diphenylamine antioxidant, Uniroyal) 2000 ppm.
Instant package is the above plus 1000 ppm of the compound of Example 1.

[7] = Apparent bulk density (ASTM D-1895); assay type: physicochemical
Description: The apparent bulk density of the solids is measured according to the method of ASTM D-1895 (79). A higher apparent bulk density allows for a greater mass per unit volume which affords advantages in packaging of the solid product, such as lower costs for the packaging material, less storage space is required, etc.

With CC(C)(C)c1cc(C(C)(C)C)c2op(OCCN(CCOp3oc4c(C(C)(C)C)cc(C(C)(C)C)cc4c4cc(C(C)(C)C)cc(C(C)(C)C)c4o3)CCOp3oc4c(C(C)(C)C)cc(C(C)(C)C)cc4c4cc(C(C)(C)C)cc(C(C)(C)C)c4o3)oc3c(C(C)(C)C)cc(C(C)(C)C)cc3c2c1 [Example 1, 2,2',2"-nitrilo[triethyl-tris-(3,3',5,5'-tetra-tert-butyl-1,1'-biphenyl-2,2'-diyl)phosphite]] the “induction time till crosslinking occurs” value [1] was “longer induction time”, the “retention of original intrinsic viscosity” value [2] was “higher retention of original intrinsic viscosity” and the “Solubility of Compound in LLDPE at 20° C.” value (shortened to “Solubility … at 20° C.”) ([3]; interval 15 (time unit not given)) was 7200 ppm. For the same molecule, the “Solubility … at 20° C.” value ([3]; interval 28 (time unit not given)) was 5100 ppm, the “Solubility … at 20° C.” value ([3]; interval 35 (time unit not given)) was 3800 ppm and the “Solubility … at 20° C.” value ([3]; interval 44 (time unit not given)) was 4700 ppm. The “Solubility of Compound in LLDPE at 40° C.” value (from here on “Solubility … at 40° C.”) ([3]; interval 10 (time unit not given)) was 2500 ppm, the “Solubility … at 40° C.” value ([3]; interval 17 (time unit not given)) was 2100 ppm and the “Solubility … at 40° C.” value ([3]; interval 25 (time unit not given)) was 2400 ppm. For the same molecule, the “Solubility … at 40° C.” value ([3]; interval 34 (time unit not given)) was 1700 ppm, the “Solubility … at 40° C.” value ([3]; interval 40 (time unit not given)) was 1900 ppm and the “Solubility … at 40° C.” value ([3]; interval 47 (time unit not given)) was 2200 ppm. The “Solubility … at 20° C.” value ([3]; third section, interval 6 (time unit not given)) was 3400 ppm, the “Solubility … at 20° C.” value ([3]; third section, interval 14 (time unit not given)) was 4000 ppm and the “Solubility … at 20° C.” value ([3]; third section, interval 22 (time unit not given)) was 4500 ppm. The “Solubility … at 20° C.” value ([3]; third section, interval 28 (time unit not given)) was 3800 ppm, the “Solubility … at 20° C.” value ([3]; third section, interval 37 (time unit not given)) was 4100 ppm and the “solubility in LLDPE” value ([3]; versus prior art compound of Example 4 of U.S. Pat. No. 4,318,845) was “far more soluble”. For the same molecule, the “stabilizing polypropylene against thermal and oxidative degradation (change in melt flow rate)” value [4] was “equal or more effective”, the “retention of intrinsic viscosity value” [5] was “better retention of intrinsic viscosity value” and the “discoloration of foam (visual inspection)” value [6] was “less discolored”. For the same molecule, the scorch protection [6] was “better scorch protection” and the “Bulk Density” value [7] was 0.49 g/mL.
